Laboratory results taken from patent publication US5116834A, “Quinolinecarboxylic acid antibacterial agents” (Warner-Lambert Company, priority 1991, dated 1992).
Converted amounts (≈) assume the structure as drawn.

Columns and labels:
Experiment in all cases: In vitro antibacterial activity, microtitration dilution method (MIC)
Format in all cases: cell-based
[1] = tested on: Pseudomonas aeroginosa UI-18; conditions: UI18, read-out: Minimal Inhibitory Concentration (MIC)
Description: (§1) The compounds of the invention display anti-bacterial activity when tested by the microtitration dilution method as described in Heifetz, et al, Antimicr. Agents & Chemoth., 6, 124 (1974), which is incorporated herein by reference.
(§2) By use of the above reference method, the following minimum inhibitory concentration value (MICs in μg/mL) shown in Table I were obtained for representative compounds of the invention.

Escherichia coli H56 = conditions: read-out: Minimal Inhibitory Concentration (MIC)
Description: as §1, §2

[2] = tested on: Staphylococcus aureus UC-76; conditions: UC76, read-out: Minimal Inhibitory Concentration (MIC)
Description: as §1, §2

[3] = tested on: Enterobacter cloacae MA 2646; conditions: MA2646, read-out: Minimal Inhibitory Concentration (MIC)
Description: as §1, §2

Proteus rettgeri M 1771 = conditions: Providencia rettgeri, M1771, read-out: Minimal Inhibitory Concentration (MIC)
Description: as §1, §2

[4] = tested on: Streptococcus pyogenes C-203; conditions: C203, read-out: Minimal Inhibitory Concentration (MIC)
Description: as §1, §2

Escherichia coli Vogel = conditions: read-out: Minimal Inhibitory Concentration (MIC)
Description: as §1, §2

[5] = tested on: Streptococcus faecalis MGH-2; conditions: Enterococcus faecalis, MGH2, read-out: Minimal Inhibitory Concentration (MIC)
Description: as §1, §2

[6] = tested on: Staphylococcus aureus H228; conditions: read-out: Minimal Inhibitory Concentration (MIC)
Description: (§3) The compounds of the invention display anti-bacterial activity when tested by the microtitration dilution method as described in Heifetz, et al, […]. Agents & Chemoth., 6, 124 (1974), which is incorporated herein by reference. By use of the above reference method, the following minimum inhibitory concentration value (MICs in μg/mL) shown in Table I were obtained for representative compounds of the invention.

[7] = tested on: Streptococcus pneumoniae SV-1; conditions: SV1, read-out: Minimal Inhibitory Concentration (MIC)
Description: as §3

[8] = tested on: Klebsiella pneumoniae MGH-2; conditions: MGH2, read-out: Minimal Inhibitory Concentration (MIC)
Description: as §3

## C=Cc1c(N2CC[C@@H](CNCC)C2)c(F)cc2c(=O)c(C(=O)O)cn(C3CC3)c12 [Ex. 3, 1-Cyclopropyl-8-ethenyl-7-[3(S)-(ethylamino)methyl-1-pyrrolidine]-6-fluoro-1,4-dihydro-4-oxo-3-quinolinecarboxylic acid]
[1]
  MIC: 3.1 µg/mL (≈ 7.76 µM)
Escherichia coli H56
  MIC: 0.1 µg/mL (≈ 0.25 µM)
[2]
  MIC: 0.003 µg/mL (≈ 0.00751 µM)
[3]
  MIC: 0.2 µg/mL (≈ 0.501 µM)
Proteus rettgeri M 1771
  MIC: 0.4 µg/mL (≈ 1 µM)
[4]
  MIC: 0.013 µg/mL (≈ 0.0325 µM)
Escherichia coli Vogel
  MIC: 0.1 µg/mL (≈ 0.25 µM)
[5]
  MIC: 0.013 µg/mL (≈ 0.0325 µM)
[6]
  MIC: 0.006 µg/mL (≈ 0.015 µM)
[7]
  MIC: 0.003 µg/mL (≈ 0.00751 µM)
[8]
  MIC: 0.4 µg/mL (≈ 1 µM)

## C=Cc1c(N2CCNCC2)c(F)cc2c(=O)c(C(=O)O)cn(C3CC3)c12 [Ex. 2, 1-Cyclopropyl-8-ethenyl-6-fluoro-1,4-dihydro-4-oxo-7-(1-piperazinyl)-3-quinolinecarboxylic acid]
[1]
  MIC: 1.6 µg/mL (≈ 4.48 µM)
Escherichia coli H56
  MIC: 0.05 µg/mL (≈ 0.14 µM)
[2]
  MIC: 0.1 µg/mL (≈ 0.28 µM)
[3]
  MIC: 0.1 µg/mL (≈ 0.28 µM)
Proteus rettgeri M 1771
  MIC: 0.4 µg/mL (≈ 1.12 µM)
[4]
  MIC: 0.4 µg/mL (≈ 1.12 µM)
Escherichia coli Vogel
  MIC: 0.1 µg/mL (≈ 0.28 µM)
[5]
  MIC: 0.4 µg/mL (≈ 1.12 µM)
[6]
  MIC: 0.4 µg/mL (≈ 1.12 µM)
[7]
  MIC: 0.4 µg/mL (≈ 1.12 µM)
[8]
  MIC: 0.2 µg/mL (≈ 0.56 µM)

## C=Cc1c(N2CCNC(C)C2)c(F)cc2c(=O)c(C(=O)O)cn(C3CC3)c12 (stereo not drawn) [Ex. 1, 1-Cyclopropyl-8-ethenyl-6-fluoro-1,4-dihydro-7-(3-methyl-1-piperazinyl)-4-oxo-3-quinolinecarboxylicacid]
[1]
  MIC: 1.6 µg/mL (≈ 4.31 µM)
Escherichia coli H56
  MIC: 0.05 µg/mL (≈ 0.135 µM)
[2]
  MIC: 0.1 µg/mL (≈ 0.269 µM)
[3]
  MIC: 0.1 µg/mL (≈ 0.269 µM)
Proteus rettgeri M 1771
  MIC: 0.4 µg/mL (≈ 1.08 µM)
[4]
  MIC: 0.2 µg/mL (≈ 0.538 µM)
Escherichia coli Vogel
  MIC: 0.1 µg/mL (≈ 0.269 µM)
[5]
  MIC: 0.4 µg/mL (≈ 1.08 µM)
[6]
  MIC: 0.2 µg/mL (≈ 0.538 µM)
[7]
  MIC: 0.2 µg/mL (≈ 0.538 µM)
[8]
  MIC: 0.2 µg/mL (≈ 0.538 µM)
